Reference: ChEMBL document CHEMBL2390874, “Synthesis, antibacterial activity and cytotoxicity of new fused pyrazolo[1,5-a]pyrimidine and pyrazolo[5,1-c][1,2,4]triazine derivatives from new 5-aminopyrazoles” (Eur J Med Chem, 2013)
Converted amounts (≈) assume the structure as drawn. The source made the active and inactive calls. The rule behind the calls is not given here.

Tests used:
Pseudomonas aeruginosa [1] = test: Bactericidal activity against Pseudomonas aeruginosa ATCC 10145 by broth dilution method; assay type: functional
Pseudomonas aeruginosa [2] = test: Antibacterial activity against Pseudomonas aeruginosa ATCC 10145 assessed as growth inhibition by broth dilution method; assay type: functional
Staphylococcus aureus [3] = test: Antibacterial activity against Staphylococcus aureus ATCC 25923 assessed as growth inhibition at 1 mg/ml after 24 hrs by agar diffusion method; assay type: functional; settings: ATCC 25923, 24 h, read-out: DIZ
Staphylococcus aureus [4] = test: Antibacterial activity against Staphylococcus aureus ATCC 25923 assessed as growth inhibition by broth dilution method; assay type: functional
[5] = Cytotoxicity against african green monkey vero cells by MTT assay; assay type: cell-based; settings: chlorocebus sabaeus
[6] = Selectivity index, ratio of CC50 for african green monkey vero cells to MIC for Bacillus subtilis ATCC 11774; assay type: functional
Salmonella typhimurium = test: Antibacterial activity against Salmonella typhimurium ATCC 51812 assessed as growth inhibition at 1 mg/ml after 24 hrs by agar diffusion method; assay type: functional, organism-based; settings: Salmonella enterica subsp. enterica serovar Typhimurium
Serratia marcescens [7] = test: Antibacterial activity against Serratia marcescens ATCC 13880 assessed as growth inhibition by broth dilution method; assay type: functional
[8] = Selectivity index, ratio of CC50 for african green monkey vero cells to MIC for Serratia marcescens ATCC 13880; assay type: functional
Staphylococcus aureus [9] = test: Bactericidal activity against Staphylococcus aureus ATCC 25923 by broth dilution method; assay type: functional
Bacillus subtilis [10] = test: Antibacterial activity against Bacillus subtilis ATCC 11774 assessed as growth inhibition by broth dilution method; assay type: functional
Serratia marcescens [11] = test: Bactericidal activity against Serratia marcescens ATCC 13880 by broth dilution method; assay type: functional
Pseudomonas aeruginosa [12] = test: Antibacterial activity against Pseudomonas aeruginosa ATCC 10145 assessed as growth inhibition at 1 mg/ml after 24 hrs by agar diffusion method; assay type: functional; settings: ATCC 10145, 24 h, read-out: DIZ
Enterococcus faecalis = test: Antibacterial activity against Enterococcus faecalis ATCC 14506 assessed as growth inhibition at 1 mg/ml after 24 hrs by agar diffusion method; assay type: functional, organism-based
[13] = system: Staphylococcus epidermidis; test: Antibacterial activity against Staphylococcus epidermidis ATCC 12228 assessed as growth inhibition at 1 mg/ml after 24 hrs by agar diffusion method; assay type: functional, organism-based
[14] = Selectivity index, ratio of CC50 for african green monkey vero cells to MIC for Staphylococcus aureus ATCC 25923; assay type: functional
Bacillus subtilis [15] = test: Antibacterial activity against Bacillus subtilis ATCC 11774 assessed as growth inhibition at 1 mg/ml after 24 hrs by agar diffusion method; assay type: functional; settings: ATCC 11774, 24 h, read-out: DIZ
Bacillus subtilis [16] = test: Bactericidal activity against Bacillus subtilis ATCC 11774 by broth dilution method; assay type: functional
Escherichia coli [17] = test: Antibacterial activity against Escherichia coli ATCC 10536 assessed as growth inhibition by broth dilution method; assay type: functional
Staphylococcus aureus [18] = test: Antibacterial activity against methicillin-resistant Staphylococcus aureus ATCC 43300 assessed as growth inhibition at 1 mg/ml after 24 hrs by agar diffusion method; assay type: functional, organism-based
Escherichia coli [19] = test: Bactericidal activity against Escherichia coli ATCC 10536 by broth dilution method; assay type: functional
Escherichia coli [20] = test: Antibacterial activity against Escherichia coli ATCC 10536 assessed as growth inhibition at 1 mg/ml after 24 hrs by agar diffusion method; assay type: functional; settings: ATCC 10536, 24 h, read-out: DIZ
[21] = Selectivity index, ratio of CC50 for african green monkey vero cells to MIC for Escherichia coli ATCC 10536; assay type: functional
Serratia marcescens [22] = test: Antibacterial activity against Serratia marcescens ATCC 13880 assessed as growth inhibition at 1 mg/ml after 24 hrs by agar diffusion method; assay type: functional; settings: ATCC 13880, 24 h, read-out: DIZ
[23] = Selectivity index, ratio of CC50 for african green monkey vero cells to MIC for Pseudomonas aeruginosa ATCC 10145; assay type: functional

Row | Molecule | MBC (Pseudomonas aeruginosa [1]) [mg/mL] | zone of inhibition at 1000 µg/mL (Staphylococcus aureus [3]) [mm] | MIC (Staphylococcus aureus [4]) [mg/mL] | CC50 [5] [mg/mL] | Selectivity Index [6] | growth inhibition (GI) (Salmonella typhimurium) | MBC (Staphylococcus aureus [9]) [mg/mL] | MIC (Bacillus subtilis [10]) [mg/mL] | zone of inhibition at 1000 µg/mL (Pseudomonas aeruginosa [12]) [mm] | growth inhibition (GI) (Enterococcus faecalis) | growth inhibition (GI) [13] | Selectivity Index [14] | zone of inhibition at 1000 µg/mL (Bacillus subtilis [15]) [mm] | MBC (Bacillus subtilis [16]) [mg/mL] | MIC (Escherichia coli [17]) [mg/mL] | growth inhibition (GI) (Staphylococcus aureus [18]) | MBC (Escherichia coli [19]) [mg/mL] | zone of inhibition at 1000 µg/mL (Escherichia coli [20]) [mm] | Selectivity Index [21] | zone of inhibition at 1000 µg/mL (Serratia marcescens [22]) [mm] | also measured
1 | GENTAMICIN | 0.002 | – | – | – | – | – | – | – | – | – | – | – | – | – | – | – | – | – | – | – | MIC (Pseudomonas aeruginosa [2]): 0.001 mg/mL
2 | Cc1cc(C)n2nc(N3CCCCC3)c(C#N)c2n1 | – | 12 | 16 (≈ 62.7 mM) | 1.25 (≈ 4.9 mM) | 0.08 | inactive | 16 (≈ 62.7 mM) | 16 (≈ 62.7 mM) | 6 | inactive | inactive | 0.08 | 10 | 16 (≈ 62.7 mM) | 16 (≈ 62.7 mM) | inactive | 16 (≈ 62.7 mM) | 11 | 0.08 | 7 | MIC (Serratia marcescens [7]): 16 mg/mL (≈ 62.7 mM); Selectivity Index [8]: 0.08; MBC (Serratia marcescens [11]): 16 mg/mL (≈ 62.7 mM)
3 | Cc1cc(O)n2nc(N3CCOCC3)c(C#N)c2n1 | > 16 | 9 | 16 (≈ 61.7 mM) | 0.063 (≈ 0.243 mM) | 0.01 | inactive | 16 (≈ 61.7 mM) | 8 (≈ 30.9 mM) | 7 | inactive | inactive | 0 | 9 | 16 (≈ 61.7 mM) | 16 (≈ 61.7 mM) | inactive | > 16 | 10 | 0 | 6 | Selectivity Index [23]: 0.01; MIC (Pseudomonas aeruginosa [2]): 8 mg/mL (≈ 30.9 mM)
4 | N#Cc1c(N2CCCC2)n[nH]c1N | 16 (≈ 90.3 mM) | 10 | 16 (≈ 90.3 mM) | 2.5 (≈ 14.1 mM) | 0.31 | inactive | 16 (≈ 90.3 mM) | 8 (≈ 45.1 mM) | 7 | inactive | inactive | 0.31 | 9 | 8 (≈ 45.1 mM) | 8 (≈ 45.1 mM) | inactive | 16 (≈ 90.3 mM) | 9 | 0.31 | 7 | MIC (Serratia marcescens [7]): 8 mg/mL (≈ 45.1 mM); Selectivity Index [8]: 0.31; MBC (Serratia marcescens [11]): 8 mg/mL (≈ 45.1 mM); Selectivity Index [23]: 0.31; MIC (Pseudomonas aeruginosa [2]): 8 mg/mL (≈ 45.1 mM)
5 | CC(=O)n1nc(N2CCCC2)c(C#N)c1N | – | 14 | 16 (≈ 73 mM) | 2.81 (≈ 12.8 mM) | 0.18 | inactive | > 16 | 16 (≈ 73 mM) | 6 | inactive | inactive | 0.18 | 14 | 16 (≈ 73 mM) | 8 (≈ 36.5 mM) | inactive | 16 (≈ 73 mM) | 16 | 0.18 | 6 | –
6 | Cc1ccc(C)n1-c1[nH]nc(N2CCCC2)c1C#N | – | 7 | 8 (≈ 31.3 mM) | 0.55 (≈ 2.15 mM) | 0.14 | inactive | 8 (≈ 31.3 mM) | 4 (≈ 15.7 mM) | 6 | inactive | inactive | 0.07 | 8 | 8 (≈ 31.3 mM) | 8 (≈ 31.3 mM) | inactive | 16 (≈ 62.7 mM) | 13 | 0.07 | 6 | –
7 | N#Cc1nnc2c(C#N)c(N3CCCCC3)nn2c1N | 16 (≈ 59.6 mM) | 11 | 16 (≈ 59.6 mM) | 1.4 (≈ 5.22 mM) | 0.09 | inactive | 16 (≈ 59.6 mM) | 16 (≈ 59.6 mM) | 7 | inactive | inactive | 0.09 | 11 | 16 (≈ 59.6 mM) | 16 (≈ 59.6 mM) | inactive | 16 (≈ 59.6 mM) | 10 | 0.09 | 6 | Selectivity Index [23]: 0.09; MIC (Pseudomonas aeruginosa [2]): 16 mg/mL (≈ 59.6 mM)
8 | N#Cc1c(N2CCOCC2)n[nH]c1N | 16 (≈ 82.8 mM) | 11 | 16 (≈ 82.8 mM) | 2.34 (≈ 12.1 mM) | 0.15 | inactive | > 16 | 16 (≈ 82.8 mM) | 7 | inactive | inactive | 0.29 | 6 | 16 (≈ 82.8 mM) | 8 (≈ 41.4 mM) | inactive | 16 (≈ 82.8 mM) | 11 | 0.29 | 6 | MIC (Serratia marcescens [7]): 8 mg/mL (≈ 41.4 mM); Selectivity Index [8]: 0.29; MBC (Serratia marcescens [11]): 8 mg/mL (≈ 41.4 mM); Selectivity Index [23]: 0.29; MIC (Pseudomonas aeruginosa [2]): 8 mg/mL (≈ 41.4 mM)
9 | Cc1ccc(C)n1-c1[nH]nc(N2CCCCC2)c1C#N | 8 (≈ 29.7 mM) | 12 | 8 (≈ 29.7 mM) | 1.4 (≈ 5.2 mM) | 0.35 | inactive | 8 (≈ 29.7 mM) | 4 (≈ 14.9 mM) | 7 | inactive | inactive | 0.18 | 16 | 8 (≈ 29.7 mM) | 8 (≈ 29.7 mM) | inactive | 8 (≈ 29.7 mM) | 7 | 0.18 | 6 | Selectivity Index [23]: 0.35; MIC (Pseudomonas aeruginosa [2]): 4 mg/mL (≈ 14.9 mM)
